Where two headings read alike, the source gives them in different places.
Columns and labels:
Cat Flea = assay: Flea Contact Assay (FCA); settings: Cat Flea
Method: Flea Contact Assay (FCA)/Cat Flea: Test material is formulated in acetone at the desired exposure concentration and doubling dilutions performed to obtain a total of 10 testing levels. Approximately 0.05 ml of formulated material is dispensed into the bottom of a test tube containing a small amount of dog hair. Acetone is allowed to evaporate under a fume hood overnight. Approximately 10 mixed-sex adult cat flea are anesthetized using carbon dioxide and dispensed into each tube. Tubes are sealed using a ventilated plastic cap and incubated at 27° C. and 75-80% relative humidity. […] Nonlinear regression is used to model dose-mortality relationship and obtain relative potency (LD50) data compared to contemporaneous controls (acetone-only or fipronil).

Boophilus annulatus = assay: Whole-body spray treatment of Boophilus annulatus infestations on cattle; type: in vivo; parameters: residual efficacy, mean percentage control of the IF, Week 3 / residual efficacy, mean percentage control of the IF, Week 4: concentration or dose not given beside the values; residual efficacy, mean percentage control of the IF, Week 2: tested at 0.025% (250 ppm)
Method: C) Efficacy Testing and comparison of topically applied spinetoram with spinosad for the treatment of Boophilus annulatus infestations on cattle. Technical spinetoram and technical spinosad both formulated as 25 g/L suspension concentrate formulations similar to commercial Elector. Stability assays (HPLC and LPT bioassays) were conducted to confirm potency over extended periods of time (5 weeks) at cool and shelf-temperatures. Cattle were pre-infested 21 d prior to treatment with larval-stage B. annulatus ticks resulting the presence of very high numbers of all three life-stages of this tick at the time of treatment. Test materials were diluted to 0.025% (250 ppm) and applied to cattle as whole-body topical sprays in a volume of 10 L per animal. There were a total of six animals per treatment group (n=6). Animals were housed in covered stalls under ambient conditions of temperature and humidity. Engorged, detached adult female ticks were retrieved from animals in each stall on a daily basis. Egg masses were weighed and eggs were set for hatching to assess viability. Efficacy was measured in terms of total numbers of female ticks per animal and index of fecundity (IF).
Means were tested by General Linear Model (GLM), 1-way ANOVA. Differences (P<0.05) among means were separated using Tukey's all pairwise comparison. Means within the same column followed by different letters were significant at the P<0.05 level.
Means were tested by General Linear Model (GLM), 2-way ANOVA with parasitic life stage and treatment group as main effects. NS denotes not significant.

Lone Star Tick = assay: Larval Packet Test (LPT); settings: Lone Star Tick larvae, 24 h
Method: Larval Packet Test (LPT)/Ticks: Test material is formulated in a 2:1 ratio of trichloroethylene: olive oil. Tissue biopsy bags are saturated with 1 ml of formulated material (n=3 per test level), and bags are allowed to dry under a fume hood for at least 2 hours. Approximately 50-100 larval-stage ticks are placed into each bag, and the bag is sealed using a plastic dialysis clip and incubated for 24 h at 27° C. and 95% relative humidity. Bags are then opened, and live/dead ticks are enumerated. Nonlinear regression is used to model dose-mortality relationship and obtain relative potency (LD50) data compared to contemporaneous controls (solvent-only or fipronil).

House Fly = assay: Adult House Fly Assay (AhsF); parameters: species or system Musca domestica; settings: 24 h, read-out: Potency (24 h EC50 μM)
Method: Adult Stable or House Fly Assay (ASF, AhsF). This assay is conducted essentially as described in White, W. H., S. M. Bauer, X. Zhao et al., Comparison of in vitro and in vivo ectoparasiticide activity of an experimental benzimidazole-carbamate with permethrin and amitraz, J. Med. Entomol. 42, 207-211 (2005); and White, W. H., C. M. McCoy, J. A. Meyer et al., Knockdown and mortality comparisons among spinosad-, imidacloprid-, and methomyl-containing baits against susceptible Musca domestica (Diptera: Muscidae) under laboratory conditions, J. Econ. Entomol. 100, 155-163 (2007).
Test material is formulated in DMSO at 10 mM. Doubling dilutions in like solvent are made to yield 10 testing levels. Materials are diluted in either bovine serum (stable flies) or 5% glucose solution (house flies) to obtain desired exposure concentrations from 200-0.39 μM. Approximately 3 ml of diluted test material is placed into a test tube (n=3 per test level) and a dental wick is used to absorb fluid. One dental wick is placed into a small weigh boat inside of a 100 mm Petri dish. Approximately 10 mixed-sex adult flies are anesthetized using carbon dioxide and counted into each dish. Dishes are incubated at 27° C. and 50-70% relative humidity. Flies recover from anesthesia and feed on compound-soaked dental wicks. After 24 h, live/dead flies are enumerated. Nonlinear regression is used to model dose-mortality relationship and obtain relative potency (LD50) data compared to contemporaneous controls (solvent-only or permethrin).

[1] = test system: Horn Fly (Haematobia irritans); assay: Cattle Ectoparasiticide Test, pour-on or spray against horn flies; type: in vivo; settings: cattle, Initial
Source text: Cattle Ectoparasiticide Test (CET)/Horn Fly (Haematobia irritans) and/or Adult Tick (Amblyomma americanum): Cattle are housed in environmentally controlled rooms, 1 or 2 animals per room that have screened doors and ventilation system to prevent fly escape. Following treatment application, a defined number of horn flies are released into each room (typically at or above economic threshold of 200 flies per animal). After defined periods of time, the numbers of live horn flies remaining on animals are enumerated. If a combination horn fly and tick experiment is conducted, adult lone star ticks are placed into surgical stockinette enclosures that are glued onto the backs of cattle. Cattle are restrained in a modified head gate within environmentally controlled rooms. Horn flies may be enumerated, followed by determination of the numbers of dead ticks inside of containment units. Typically there are 2 containment units per animal and at least 2 animals per treatment group.
B) Therapeutic and residual efficacy testing of spinetoram and Elector against horn flies when applied topically to cattle as a pour-on or topical spray. Spinetoram (120 g/L), Elector (25 g/L spinosad) as described previously were used. Test material was applied to animals as either a whole-body topical spray or neat pour-on. Spinetoram was diluted in water to 25 g/L prior to application as a pour-on. Both materials were diluted in water to 0.04% (400 ppm) for application as a whole-body spray in a total volume of 1 L per animal. There were a total of six animals per treatment group (n=6) plus six negative control animals. Beef and dairy cattle were used. Following treatments, horn flies were released into rooms harboring cattle. Live flies were enumerated 24 h following challenges.

[2] = cattle, 0.025% AI whole-body spray, mean ± SD

O=[N+]([O-])NC1=NCCN1Cc1ccc(Cl)nc1 [Imidacloprid, imidacloprid]
Potency (EC50 ng/cm^2) 24 h (Cat Flea): 11.59 ng/cm^2
Potency (EC50 ng/cm^2) 48 h (Cat Flea): 7.737 ng/cm^2

spinosad
initial/knockdown activity against B. annulatus (Boophilus annulatus; cattle, 0.025% AI): poor
Number ♀♀ Ticks per Calf (Boophilus annulatus; [2]): 2423 ± 311 a
Total Index of Fecundity (IF) (Boophilus annulatus; [2]): 289 ± 40.1 a
Percentage Control of the IF (Boophilus annulatus; cattle, 0.025% AI whole-body spray, therapeutic efficacy): 27.6 ± 10.0 a %
Percentage control, Adult (Boophilus annulatus; parasitic life stage adult, 0.025% AI): 18.5 ± 13.0%
Percentage control, Larval (Boophilus annulatus; parasitic life stage larva, 0.025% AI): 33.1 ± 16.6%
Percentage control, Nymph (Boophilus annulatus; parasitic life stage nymph, 0.025% AI): 32.9 ± 10.8%
residual efficacy, mean percentage control of the IF, Week 1 (Boophilus annulatus; ticks infested as larvae Week 1 after treatment): 97.6 ± 2.1%
residual efficacy, mean percentage control of the IF, Week 2 (Boophilus annulatus; ticks infested as larvae Week 2 after treatment): 98.5 ± 1.2%
residual efficacy, mean percentage control of the IF, Week 3 (Boophilus annulatus; ticks infested as larvae Week 3 after treatment): 89.4 ± 6.2%
residual efficacy, mean percentage control of the IF, Week 4 (Boophilus annulatus; ticks infested as larvae Week 4 after treatment): 89.7 ± 4.8%
Potency (EC50 ng/cm^2) 24 h (Cat Flea): 3.084 ng/cm^2
Potency (EC50 ng/cm^2) 48 h (Cat Flea): 1.500 ng/cm^2
Potency (EC50) (Lone Star Tick): 189.6 ppm
EC50 (House Fly; House Fly): 12 µM
GM percent horn fly reduction after 24 hrs, Pour-on ([1]; pour-on 2 mg/kg): 99.9%
GM percent horn fly reduction after 24 hrs, Spray ([1]; whole-body spray 0.04% AI): 100%

CC1(C)C(C=C(Cl)Cl)C1C(=O)OCc1cccc(Oc2ccccc2)c1 (stereo not drawn) [Permethrin, permethrin]
Potency (EC50 ng/cm^2) 24 h (Cat Flea): 63.30 ng/cm^2
Potency (EC50 ng/cm^2) 48 h (Cat Flea): 0.1580 ng/cm^2

N#Cc1nn(-c2c(Cl)cc(C(F)(F)F)cc2Cl)c(N)c1[S+]([O-])C(F)(F)F (stereo not drawn) [Fipronil, fipronil]
Potency (EC50 ng/cm^2) 24 h (Cat Flea): 43.56 ng/cm^2
Potency (EC50 ng/cm^2) 48 h (Cat Flea): 22.18 ng/cm^2
EC50 (House Fly; Musca domestica): 0.97 µM
